Assay results reported in patent publication US12162893B2 (Erasca, Inc., priority 2020, dated 2024).

Biological target: T1, mutant G12C K-RAS (Homo sapiens, UniProt P01116, G12C)
T1 construct: made in house; host or cells: E. coli BL21
Test: covalent adduct formation (CAF) with mutant G12C K-RAS
Assay type: binding
Design: CAF: unit not given here
Conditions: for % CAF @ 10 μM,1 h: Table 6; for % CAF (60 min): Table 2, Pyrimidone Core-Morpholine Substituted
Method: Embodiments disclosed herein are further illustrated by the following examples in Tables 1-4 and the Examples hereinbelow. The Tables indicate the compound number, structure, the observed mass spectral molecular weight peak, and covalent adduct formation (CAF) with a mutant G12C K-RAS after 60 minutes at a concentration of 10 micromolar.

[1] = after 60 minutes at 10 micromolar

| SMILES | % CAF @ 10 μM,1 h [%] | other results |
| --- | --- | --- |
| C=CC(=O)N1C[C@H](C)N(c2nc(=O)n3c4c(c(-c5ccc(F)cc5F)c(Cl)cc24)OC[C@H]3COC2CCN(C)CC2)C[C@H]1C [Example 297, (3R)-7-((2S,5R)-4-acryloyl-2,5-dimethylpiperazin-1-yl)-9-chloro-10-(2,4-difluorophenyl)-3-(((1-methylpiperidin-4-yl)oxy)methyl)-2H-[1,4]oxazino[2,3,4-ij]quinazolin-5(3H)-one] | 90.5 |  |
| C=CC(=O)N1C[C@H](C)N(c2nc(=O)n3c4c(c(-c5c(O)cccc5F)c(Cl)cc24)OC[C@@H]3CO)C[C@H]1C [Example 27, (3S,10S)-7-((2S,5R)-4-acryloyl-2,5-dimethylpiperazin-1-yl)-9-chloro-10-(2-fluoro-6-hydroxyphenyl)-3-(hydroxymethyl)-2H-[1,4]oxazino[2,3,4-ij]quinazolin-5(3H)-one] |  | % CAF (60 min) [1]: 85.5% |
| C=CC(=O)N1C[C@H](C)N(c2nc(=O)n3c4c(c(-c5ccc(F)cc5)c(Cl)cc24)OCC3CN(C)C)C[C@H]1C (stereo partly drawn) [Example 34, 7-((2S,5R)-4-acryloyl-2,5-dimethylpiperazin-1-yl)-9-chloro-3-((dimethylamino)methyl)-10-(4-fluorophenyl)-2H-[1,4]oxazino[2,3,4-ij]quinazolin-5(3H)-one] |  | % CAF (60 min) [1]: 77.4% |
| C=CC(=O)N1C[C@H](C)N(c2nc(=O)n3c4c(c(-c5ccc(F)cc5F)c(Cl)cc24)OC[C@H]3CCCN2C3CCC2COC3)C[C@H]1C [Example 254, (3R)-3-(3-(3-oxa-8-azabicyclo[3.2.1]octan-8-yl)propyl)-7-((2S,5R)-4-acryloyl-2,5-dimethylpiperazin-1-yl)-9-chloro-10-(2,4-difluorophenyl)-2,3-dihydro-5H-[1,4]oxazino[2,3,4-ij]quinazolin-5-one] | 99.5 |  |
| C=CC(=O)N1C[C@H](C)N(c2nc(=O)n3c4c(c(-c5c(O)cccc5F)c(Cl)cc24)OC[C@@H]3CCCN2CCOCC2)C[C@H]1C (atropisomer, axis not shown) [Example 225, (3S,10R)-7-((2S,5R)-4-acryloyl-2,5-dimethylpiperazin-1-yl)-9-chloro-10-(2-fluoro-6-hydroxyphenyl)-3-(3-morpholinopropyl)-2,3-dihydro-5H-[1,4]oxazino[2,3,4-ij]quinazolin-5-one] | 4.4 |  |
| C=CC(=O)N1C[C@H](C)N(c2nc(=O)n3c4c(c(-c5ccc(F)cc5F)c(Cl)cc24)OC[C@H]3CCCN2C[C@@H]3C[C@H]2CO3)C[C@H]1C [Example 270, (3R)-3-(3-((1S,4S)-2-oxa-5-azabicyclo[2.2.1]heptan-5-yl)propyl)-7-((2S,5R)-4-acryloyl-2,5-dimethylpiperazin-1-yl)-9-chloro-10-(2,4-difluorophenyl)-2H-[1,4]oxazino[2,3,4-ij]quinazolin-5(3H)-one] | 96.4 |  |
| C=CC(=O)N1C[C@H](C)N(c2nc(=O)n3c4c(c(-c5ccc(F)cc5F)c(Cl)cc24)OC[C@@H]3CN2CCOCC2)C[C@H]1C [Example 203, (3S)-7-((2S,5R)-4-acryloyl-2,5-dimethylpiperazin-1-yl)-9-chloro-10-(2,4-difluorophenyl)-3-(morpholinomethyl)-2H-[1,4]oxazino[2,3,4-ij]quinazolin-5(3H)-one] | 84.3 |  |
| C=CC(=O)N1C[C@H](C)N(c2c(C#N)c(=O)n3c4c(c(-c5c(O)cccc5F)c(Cl)cc24)OCC3)C[C@H]1C [Example 41, 7-((2S,5R)-4-acryloyl-2,5-dimethylpiperazin-1-yl)-9-chloro-10-(2-fluoro-6-hydroxyphenyl)-5-oxo-3,5-dihydro-2H-[1,4]oxazino[2,3,4-ij]quinoline-6-carbonitrile] |  | CAF (Table 3, Pyridone Core-Morpholine Unsubstituted, after 60 minutes at 10 micromolar): 22.3 |
| C=CC(=O)N1C[C@H](C)N(c2nc(=O)n3c4c(c(-c5c(F)ccc6c5C(=O)NC6)ccc24)OCC3)C[C@H]1C [Example 231, 7-((2S,5R)-4-acryloyl-2,5-dimethylpiperazin-1-yl)-10-(5-fluoro-3-oxoisoindolin-4-yl)-2,3-dihydro-5H-[1,4]oxazino[2,3,4-ij]quinazolin-5-one] | 0 |  |
